{
  "source": "patent US20220249399A1",
  "about": "“COMPOSITION COMPRISING AN ANTI-OXIDANT TO PRESERVE CORNEAL TISSUE” (University of lowa Research Foundation, priority 2019, published 2022)",
  "key": {"[1]": {"tested_on": "human donor corneal endothelial cells", "assay": "Mitochondrial respiration assay (Seahorse XFe24 extracellular flux analyzer) of donor corneal endothelium after storage in supplemented Optisol GS", "assay_type": "cell-based", "details": "for ATP Production, Mean (SD) / Maximal Respiration, Mean (SD) / Non-mitochondrial Respiration, Median [IQR] / Proton Leak, Mean (SD) / Spare Respiratory Capacity, Mean (SD) / Basal, Mean (SD): OCR per cell (pmole/min/cell)", "experimental": "Human corneal tissue pairs were obtained by Iowa Lions Eye Bank (ILEB) from nondiabetic donors 60-75 years old and stored in Optisol GS (Bausch+Lomb, Irvine, Calif.) at 4° C. following procurement in accordance with Eye Bank Association of America and ILEB policies and procedures. For 5 days prior to testing, but within 9 days of procurement, one stored tissue from a corneal pair was treated with 10 μM CoQ10, while the mate tissue was treated with diluent only as a control. Descemet membrane and endothelial cell punches were collected and mounted onto the bottom of a Seahorse assay plate (cells facing upward). Mitochondrial respiration was assayed by measuring oxygen consumption using the Seahorse XFe24 Extracellular Flux Analyzer (Agilent Technologies, Santa Clara, Calif.) over 120 minutes (9-minute intervals). Punches were labeled with a nuclear counterstain (DAPI) and remaining tissues were mounted onto slides and labeled with 488A-Annexin V, Ethidium Homodimer III, and Hoechst 33342 (Apoptotic, Necrotic, and Healthy Cells Quantification Kit; Biotium, Fremont, Calif.) to assay cell health. Nuclei were counted in each punch to normalize respirometry data. Immunohistochemistry densitometry was measured using ImageJ software.\nHuman donor whole globe eye pairs were obtained by Iowa Lions Eye Bank (ILEB) and the anterior portion of the eyes were removed. For 14 days, one cornea was stored from a corneal pair treated with 1 mM ascorbate-2-phosphate, while the mate tissue was treated with diluent only as a control. Descemet membrane and endothelial cell punches were collected and mounted onto the bottom of a Seahorse assay plate (cells facing upward). Mitochondrial respiration was assayed by measuring oxygen consumption using the Seahorse XFe24 Extracellular Flux Analyzer (Agilent Technologies, Santa Clara, Calif.) over 120 minutes (9-minute intervals). Punches were labeled with a nuclear counterstain (DAPI) and nuclei were counted in each punch to normalize respirometry data. […]\nTissue preparation and extracellular flux assays for mitochondrial respiration were performed as described in Greiner et al. (2015). In brief, after pre-stripping the EDM, 3 mm diameter EDM punches were mounted in wells of a XF24 microplate (Agilent Technologies, Santa Clara, Calif.). After acclimation for one hour at 37° C. in non-buffered assay media, metabolic activity of the EDM samples was quantified using a commercial kit (XF Cell Mito Stress Test Kits; Agilent Technologies) on a Seahorse XFe24 extracellular flux analyzer (Agilent Technologies). Following extracellular flux analysis, tissues were labeled fluorescently using a 1:1000 Sytox Green nucleic acid stain in the microtiter plate (Life Technologies, Grand Island, N.Y.) and imaged on an Olympus IX-81 inverted microscope (Olympus America, Center Valley, Pa.) using a FITC filter. Cell counts were determined using Image J (https://imagej.nih.gov/ij/download.html) and used to compute the oxygen consumption rate per cell (OCR; pmole/min/cell). Raw OCR values were used to calculate several different key parameters of metabolic function per manufacturer's directions (Agilent Technologies), as in Aldrich et al. (2017). The parameters and calculations used in this study were the main outcome measures, including basal respiration, ATP-associated oxygen consumption, proton [H^+] leak, maximal respiration, spare respiratory capacity, non-mitochondrial respiration, and coupling efficiency as described in Schneider et al. and Goldstein et al. (2018).\nMitochondrial Respiration Assay: 3 mm punches of central and peripheral endothelium-Descemet membrane complex (EDM) were secured to the bottom of cell culture microplate wells or CECs were grown directly onto microplate."}, "[2]": {"assay": "Stability in water (yellowish discoloration = oxidation to ubiquinone)", "assay_type": "physicochemical", "details": "shaken in water for 24 h", "experimental": "• γ-CD was dissolved in water at different concentrations, and ubiquinol was added to it while stirring (protected from light). • Stirring continues for 2-5 days. Finally, the formed precipitate (complex) was collected and dried. • Yellow discoloration, which indicates the oxidation of ubiquinol following the formation of the yellow oxidized form (ubiquinone), was noticeable at different degrees depending on the stirring time.\nIn FIG. 11, the image on the right is 5 mg of CoQ10 added to 10 ml H2O and shaken for 24 hours. […] The instability of ubiquinol in water after both free drug or the complex was stirred in water for 24 h explains why the kneading method that involves the minimum amount of water was chosen form preparation."}, "[3]": {"tested_on": "human donor corneal endothelial cells", "assay": "Mitochondrial respiration assay (Seahorse XFe24 extracellular flux analyzer) of donor corneal endothelium after storage in supplemented Optisol GS", "assay_type": "cell-based", "details": "1 μM coQ10, tissues in storage"}, "[4]": {"details": "10 μM CoQ10 (ubiquinol), 5 days in Optisol GS, vs diluent-treated mate cornea, 13 or 14 paired corneas"}, "[5]": {"details": "10 μM ubiquinol vs diluent-treated mate cornea, 5 days, n = 13"}, "[6]": {"details": "10 μM ubiquinol, 5 days in Optisol-GS, n = 13"}, "[7]": {"details": "Example 13: 10 μM ubiquinol, 5 days in Optisol-GS, N=13, vs controls"}, "[8]": {"details": "palmitate-BSA treated tissues (100 μM), 5 days, n = 7"}},
  "note": "Entries after “also recorded” stand apart in the source; their conditions may differ. Marks after values point to notes of the source that are not given here.",
  "data": [
    {"substance": "ubiquinol", "values": [
      {"measurement": "non-mitochondrial respiration", "setting": "[1]; 1 μM coQ10, among doses 0.5, 1, 5, 7.5 μM", "result": "largest increase in non-mitochondrial respiration"},
      {"measurement": "mitochondrial spare respiratory capacity", "setting": "[1]; 1 μM coQ10, tissues in storage (compared with the 10 μM dose)", "result": "did not show a bolstering of mitochondrial spare respiratory capacity function"},
      {"measurement": "proton leak increased", "setting": "[1]; 10 μM CoQ10 (ubiquinol), 5 days in Optisol GS at 4° C., vs diluent-treated mate cornea, 13 or 14 paired corneas", "result": 34, "unit": "%"},
      {"measurement": "maximal respiration increased", "setting": "[1]; [4]", "result": 97, "unit": "%"},
      {"measurement": "spare respiratory capacity increased", "setting": "[1]; [4]", "result": 133, "unit": "%"},
      {"measurement": "ATP Production, Mean Difference: Ubiquinol-Control (95% CI)", "setting": "[1]; [5]", "result": "−0.0001 (−0.0033, 0.0032)"},
      {"measurement": "Basal, Mean Ratio: Ubiquinol/Control (95% CI)", "setting": "[1]; [5]", "result": "Ratio: 1.12 (0.88, 1.43)"},
      {"measurement": "Coupling Efficiency, Mean Difference: Ubiquinol-Control (95% CI)", "setting": "[1]; [5]", "result": "−0.0655 (−0.1550, 0.0240)"},
      {"measurement": "Maximal Respiration, Mean Ratio: Ubiquinol/Control (95% CI)", "setting": "[1]; [5]", "result": "Ratio: 1.93 (1.31, 2.85)"},
      {"measurement": "Non-mitochondrial Respiration, Median Difference: Ubiquinol-Control (95% CI)", "setting": "[1]; [5]", "result": "0.000013^# (−0.00255, 0.00123)"},
      {"measurement": "Proton Leak, Mean Ratio: Ubiquinol/Control (95% CI)", "setting": "[1]; [5]", "result": "Ratio: 1.80 (1.01, 3.21)"},
      {"measurement": "Spare Respiratory Capacity, Mean Ratio: Ubiquinol/Control (95% CI)", "setting": "[1]; [5]", "result": "Ratio: 2.74 (1.61, 4.66)"},
      {"measurement": "Coupling Efficiency, Mean (SD)", "setting": "[1]; [6]", "result": "0.5303 (0.1141)"},
      {"measurement": "ATP Production, Mean (SD)", "setting": "[1]; [6]", "result": "0.0116 (0.0049)"},
      {"measurement": "Maximal Respiration, Mean (SD)", "setting": "[1]; [6]", "result": "0.0998 (0.0799)"},
      {"measurement": "Non-mitochondrial Respiration, Median [IQR]", "setting": "[1]; [6]", "result": 0.00662},
      {"measurement": "Proton Leak, Mean (SD)", "setting": "[1]; [6]", "result": "0.0091 (0.0049)"},
      {"measurement": "Spare Respiratory Capacity, Mean (SD)", "setting": "[1]; [6]", "result": "0.0781 (0.0734)"},
      {"measurement": "Basal, Mean (SD)", "setting": "[1]; 10 μM ubiquinol, 5 days in Optisol-GS, n = 13 matched tissues", "result": "0.0202 (0.0087)"},
      {"measurement": "maximal respiration increased", "setting": "[1]; [7]", "result": 93, "unit": "%"},
      {"measurement": "proton leak increased", "setting": "[1]; [7]", "result": 80, "unit": "%"},
      {"measurement": "spare respiratory capacity increased", "setting": "[1]; [7]", "result": 174, "unit": "%"},
      {"measurement": "Basal, Mean (SD)", "setting": "[1]; palmitate-BSA treated tissues (100 μM), 5 days in Optisol-GS, n = 7 matched tissues", "result": "0.0251 (0.0138)"},
      {"measurement": "Coupling Efficiency, Mean (SD)", "setting": "[1]; [8]", "result": "0.5376 (0.1891)"},
      {"measurement": "ATP Production, Mean (SD)", "setting": "[1]; [8]", "result": "0.0155 (0.0090)"},
      {"measurement": "Maximal Respiration, Mean (SD)", "setting": "[1]; [8]", "result": "0.1102 (0.0309)"},
      {"measurement": "Non-mitochondrial Respiration, Median [IQR]", "setting": "[1]; [8]", "result": 0.00809},
      {"measurement": "Proton Leak, Mean (SD)", "setting": "[1]; [8]", "result": "0.0106 (0.0075)"},
      {"measurement": "Spare Respiratory Capacity, Mean (SD)", "setting": "[1]; [8]", "result": "0.0833 (0.0212)"},
      {"measurement": "oxygen consumption rate (OCR) of CEC", "setting": "[1]; ubiquinol supplemented vs non-supplemented CEC (FIG. 1)", "result": "High OCR; also recorded: increased oxygen consumption rate"},
      {"measurement": "stability in water (discoloration)", "setting": "[2]", "result": "yellowish discoloration was noticeable"},
      {"measurement": "proton leak", "setting": "[3]", "result": "no increase in proton leak"}
    ]}
  ]
}
